Measured values as given in paper PMC12040169 (PLOS Biology, 2025).

Assay: in vitro
Details: human, hela cells, % viability

SMILES | viability at 28.5 h, 10 µM
CC(C)CC(=O)N1CCC(n2c(=O)oc3ccc(Cl)cc32)CC1 [CBK285477] | 105%
COC(=O)[C@H]1CCc2ccccc2N1C(=O)C1CCC1 [CBK285478] | 100%
O=C(N1CCC(c2ccncc2)CC1)C1(c2ccccc2)CC1 [CBK285480] | 102%
COc1ccccc1CC(=O)N1CCN(Cc2ccco2)C[C@@H]1C [CBK285481] | 105%
CC(C(=O)N1CCC(c2ccncc2)CC1)c1ccccc1 (centres unmarked) [CBK285484] | 99.1%
COc1cccc(CN2CCN(C(=O)Cc3cccs3)[C@@H](C)C2)c1 [CBK285487] | 104%
CCn1cc(C(=O)N2CCN(Cc3ccco3)C[C@@H]2C(C)C)c(C)n1 [CBK285488] | 110%
C[C@@H]1CN(Cc2ccco2)CCN1C(=O)c1nccc2ccccc12 [CBK285489] | 99.8%
CC(C)[C@H]1CN(Cc2ccco2)CCN1C(=O)c1cscn1 [CBK285490] | 99.6%
O=C(C1CCCC1)N1C[C@@H]2CCCCN(Cc3cccnc3)[C@@H]2C1 [CBK285492] | 101%
CC(=O)N1C[C@@H]2CCCCN(CCOc3ccccc3)[C@@H]2C1 [CBK285494] | 107%
CC(=O)N1C[C@@H]2CCCCN(CCc3ccc(F)cc3)[C@@H]2C1 [CBK285495] | 112%
O=C(c1ccccc1)N1C[C@@H]2CCCCN(CC3CC3)[C@@H]2C1 [CBK285498] | 102%
O=C(C1CCCC1)N1CCCC1c1nnc(-c2ccsc2)o1 (centres unmarked) [CBK285506] | 102%
O=C(Cc1ccsc1)N1C[C@@H]2CCCCN(CC3CC3)[C@@H]2C1 [CBK285507] | 104%
COC(=O)CN1CCCC[C@H]2CN(C(=O)Cc3ccsc3)C[C@H]21 [CBK285509] | 111%
COc1cccc(CN2CCCC[C@H]3CN(C(C)=O)C[C@H]32)c1 [CBK285510] | 107%
O=C(c1ccccc1)N1C[C@@H]2CCCCN(Cc3cccnc3)[C@@H]2C1 [CBK285512] | 98.7%
CS(=O)(=O)N1C[C@@H]2CCCCN(Cc3cccc(F)c3F)[C@@H]2C1 [CBK285513] | 95.6%
COc1ccccc1CC(=O)N1CCCC1c1nc2ccccc2[nH]1 (centres unmarked) [CBK285517] | 94.6%

SMILES | viability at 28.5 h, 10 µM
COC1CCCC(C(=O)N2CCC(c3onc4c3CCC4)CC2)C1 (centres unmarked) [CBK285519] | 103%
CC(C)OC(=O)[C@@H]1CCN(C(=O)CCC2NC(=O)NC2=O)[C@@H]1c1ccc(F)cc1 (some centres unmarked) [CBK285520] | 103%
CC(C)CN1CCC2(CC=CCN(Cc3ccc(F)cc3)C2=O)CC1 [CBK285521] | 116%
COc1ccc([C@H]2CN(C(=O)c3ccccn3)[C@@H]3CCCN(C(C)=O)[C@H]23)cc1 [CBK285523] | 91.4%
CC(C)N1CCC[C@@H]2CN(C(=O)c3cccc(C(F)(F)F)c3)C[C@@H]21 [CBK285525] | 96%
CN1CC[C@H](c2ccccc2)[C@@H]2[C@H]1CCCCN2C(=O)c1ccc(=O)oc1 [CBK285527] | 93.2%
O=C(CCC1CCCC1)N1C[C@@H]2CCCCN(CC3CC3)[C@@H]2C1 [CBK285531] | 94%
Cc1cccc(Nc2ccc(C3CCCCN3Cc3ccc4nccnc4c3)cn2)n1 (centres unmarked) [CBK285536] | 76.2%
COc1ccc(C(NC(=O)Cc2ccc(-n3nnnc3C)cc2)c2ccccc2)cc1 (centres unmarked) [CBK285537] | 92.8%
CCC(C)NC(=O)C1(Cc2ccc(-c3cc(F)ccc3OC)cc2)CCOCC1 (centres unmarked) [CBK285539] | 102%
COc1ccc(F)cc1-c1ccc(CC2(C(=O)NCc3cccs3)CCOCC2)cc1 [CBK285540] | 112%
COc1ccc(F)cc1-c1cccc(CC2(C(=O)NC3CCCCC3)CCOCC2)c1 [CBK285541] | 92.8%
COc1ccc([C@H]2CN(Cc3ccccc3)[C@@H]3CCN(C(=O)c4ccccc4F)C[C@H]23)cc1 [CBK285542] | 91.1%
O=C(c1cccs1)N1C[C@H](c2ccc(F)cc2)[C@H]2CN(Cc3ccccc3)CC[C@H]21 [CBK285544] | 91.8%
O=C(c1cccs1)N1C[C@H](c2ccc(F)cc2)[C@H]2CN(Cc3ccc(F)cc3)CC[C@H]21 [CBK285545] | 91.3%
Cc1ccccc1CN1CC[C@@H]2[C@H](C1)[C@@H](c1ccc(F)cc1)CN2C(=O)c1cccs1 [CBK285546] | 86.8%
CC(=O)NC(CC(=O)N1CCc2sccc2C1c1ccccc1)c1ccc(F)cc1 (centres unmarked) [CBK285548] | 112%
COc1ccc([C@H]2CN(Cc3ccccc3)[C@@H]3CCN(C(=O)c4ccccc4)C[C@H]23)cc1 [CBK285550] | 86.6%
Cc1nc(C2CCCCN2C(=O)C2CCCCC2)ncc1C(=O)NCc1ccc(F)cc1 (centres unmarked) [CBK285554] | 86.5%
Cc1cc(C)n(CC(=O)Nc2cccc(CCc3ccncc3)c2)c(=O)n1 [CBK285555] | 105%

SMILES | viability at 28.5 h, 10 µM
Cc1nc2ncnn2c(C)c1CCC(=O)Nc1cccc(CCc2ccncc2)c1 [CBK285557] | 99.8%
COc1nn(CC(=O)Nc2cccc(CCc3ccncc3)c2)c(=O)c2ccccc12 [CBK285560] | 94.5%
CCn1nc2c(c1C(=O)Nc1cccc(CCc3ccncc3)c1)CCCC2 [CBK285561] | 87.5%
COc1ccc(F)cc1-c1cccc(CC2(C(=O)NCCc3ccccc3)CCOCC2)c1 [CBK285562] | 84.5%
Cc1oc(C(=O)N2CCc3sccc3C2c2ccccc2)cc1CN1CCOCC1 (centres unmarked) [CBK285566] | 105%
Cc1cc(C)nc(N2CCC(c3cc(CCOc4cccc(C(F)(F)F)c4)[nH]n3)C2)n1 (centres unmarked) [CBK285568] | 78.7%
O=C(NCc1cccs1)C1(Cc2cccc(-c3ccc(F)c(F)c3)c2)CCOCC1 [CBK285569] | 93.2%
O=C(NCCc1ccc(Cl)cc1)C1(Cc2ccc(-c3ccncc3)cc2)CCOCC1 [CBK285570] | 89%
CN1C[C@H](C(N)=O)[C@@H](c2ccc(CN(C)C(=O)c3cccc(Oc4ccccc4)c3)cc2)C1 [CBK285572] | 114%
COc1ccc(C(NC(=O)c2cc(C)oc2CN2CCCC2)c2ccccc2)cc1 (centres unmarked) [CBK285573] | 118%
Cc1cc(C)nc(N2CCC(C3CC=CCN(CCc4ccccc4)C3=O)CC2)n1 (centres unmarked) [CBK285575] | 105%
O=C(c1cc2c(s1)CCCC2)N1CCCCC1c1nnc(-c2nccc3ccccc23)o1 (centres unmarked) [CBK285577] | 61%
COc1ccc(C(NC(=O)c2ccc(Cn3nc(C)cc3C)o2)c2ccccc2)cc1 (centres unmarked) [CBK285578] | 87.8%
O=C(NC1Cc2ccccc2C1)c1cccc(-c2ccc(CC3CCCNC3=O)cc2)c1 (centres unmarked) [CBK285579] | 94.9%
COc1ccc([C@H]2CN(C(=O)c3ccccc3)[C@@H]3CCN(Cc4cccc(F)c4)C[C@H]23)cc1 [CBK285584] | 98.9%
COc1ccc(-c2ccc(OC)cc2C(=O)Nc2ccc(Cn3cncn3)cc2)cc1 [CBK285588] | 109%
O=C(NCC1CCCCC1)C1(Cc2ccc(-c3cccnc3)cc2)CCOCC1 [CBK285591] | 92.6%
CNC(=O)C1(Cc2ccccc2-c2ccccc2)CCN(C(=O)Cc2cccc(C)c2)CC1 [CBK285594] | 104%
CN(C(=O)c1c[nH]nc1-c1ccc(CNC(=O)c2cccc(Cl)c2)cc1)c1ccccc1 [CBK285597] | 79.9%
